{
  "source": "ChEMBL document CHEMBL6109137",
  "about": "“Design, Synthesis, Evaluation, and SAR of 5-Phenylisoindoline Derivatives, a Potent Class of Small-Molecule Inhibitors Targeting the Programmed Cell Death-1/Programmed Cell Death-Ligand 1 (PD-1/PD-L1) Interaction” (J Med Chem, 2025)",
  "key": {"[1]": {"assay": "AUC (0 to infinity) in Sprague-Dawley rat at 1 mg/kg, iv measured for 24 hrs by LC-MS/MS analysis", "format": "ADME, organism-based", "conditions": "in vivo"}, "[2]": {"biological_target": "Programmed cell death protein 1/Programmed cell death 1 ligand 1 (Homo sapiens, UniProt Q9NZQ7)", "sequence (Q15116 whole entry)": "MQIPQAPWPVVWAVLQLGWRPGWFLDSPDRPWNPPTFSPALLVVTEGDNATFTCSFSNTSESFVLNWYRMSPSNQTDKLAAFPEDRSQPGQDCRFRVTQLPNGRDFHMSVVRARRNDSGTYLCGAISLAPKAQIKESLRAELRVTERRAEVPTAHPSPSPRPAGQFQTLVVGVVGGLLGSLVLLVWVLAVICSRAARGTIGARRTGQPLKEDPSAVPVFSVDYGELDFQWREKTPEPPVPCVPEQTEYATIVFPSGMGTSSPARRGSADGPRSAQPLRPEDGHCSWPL", "sequence (Q9NZQ7 whole entry)": "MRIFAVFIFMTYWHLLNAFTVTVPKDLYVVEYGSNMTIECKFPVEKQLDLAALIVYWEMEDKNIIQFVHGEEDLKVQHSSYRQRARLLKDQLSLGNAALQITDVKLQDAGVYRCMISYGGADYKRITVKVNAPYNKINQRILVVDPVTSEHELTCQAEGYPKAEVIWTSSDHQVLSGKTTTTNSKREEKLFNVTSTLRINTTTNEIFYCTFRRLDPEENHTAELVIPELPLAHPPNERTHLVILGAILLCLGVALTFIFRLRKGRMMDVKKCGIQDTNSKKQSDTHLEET", "assay": "Inhibition of interaction of PD-1/PD-L1 (unknown origin) by HTRF analysis", "format": "protein-complex assay"}, "[3]": {"assay": "Cytotoxicity against HEK293T cells measured after 48 hrs by MTT assay", "format": "toxicity, cell-based, HEK-293T", "conditions": "human"}, "MC-38 [4]": {"system": "MC-38", "assay": "Antitumor activity against mouse MC38 cells implanted in C57BL/6J mouse assessed as tumor growth inhibition administered intragastrically once daily for 7 days", "format": "functional, cell-based", "conditions": "dose 40-160 mg/kg, route ig, time 7.0 day"}, "[5]": {"assay": "Drug uptake in mouse MC38 cells incubated for 48 hrs by LC-MS/MS analysis", "format": "ADME, cell-based", "conditions": "mc-38, 48 h, dose 1-10 µM"}, "[6]": {"assay": "AUC (0 to infinity) in Sprague-Dawley rat at 10 mg/kg, ip measured for 24 hrs by LC-MS/MS analysis", "format": "ADME, organism-based", "conditions": "in vivo"}, "MC-38 [7]": {"system": "MC-38", "assay": "Antitumor activity against mouse MC38 cells implanted in C57BL/6J mouse assessed as increase in ratio of CD8+/CD4+ T cells at 20 mg/kg, ip qd for 13 days by flow cytometry", "format": "functional, organism-based", "conditions": "time 13.0 day"}, "[8]": {"assay": "Toxicity in C57BL/6J mouse implanted with mouse MC38 cells assessed as change in serum ALT level at 5 to 20 mg/kg, ip qd for 13 days", "format": "organism-based", "conditions": "in vivo, 312 h, dose 5-20 mg/kg, time 13 day"}, "[9]": {"assay": "Toxicity in C57BL/6J mouse implanted with mouse MC38 cells assessed as change in ureas level at 40 to 160 mg/kg, IG qd for 7 days", "format": "organism-based", "conditions": "in vivo, po, 168 h, dose 40-160 mg/kg, time 7 day"}},
  "note": "Active and inactive are the calls of the source. No cut-off for these calls is given here.",
  "data": [
    {"smiles": "C[C@H](N)C(=O)N1Cc2ccc(-c3cccc(-c4ccc5c(c4)OCCO5)c3Cl)cc2C1.Cl", "values": [
      {"measurement": "AUC(0-inf)", "setting": "[1]", "value": 191, "unit": "ng·h/mL"},
      {"measurement": "IC50", "setting": "[2]", "value": 4.8, "unit": "nM"},
      {"measurement": "IC50 at 48 h", "setting": "[3]", "value": "> 10000", "unit": "nM"},
      {"measurement": "inhibition", "setting": "MC-38 [4]", "value": "Dose-dependent-effect"},
      {"measurement": "Drug uptake", "setting": "[5]", "value": "Dose-dependent-effect"},
      {"measurement": "AUC(0-inf)", "setting": "[6]", "value": 1620, "unit": "ng·h/mL"},
      {"measurement": "Activity", "setting": "MC-38 [7]", "value": "Active"},
      {"measurement": "Activity", "setting": "[8]", "value": "Non-toxic"},
      {"measurement": "Activity", "setting": "[9]", "value": "Non-toxic"}
    ]}
  ]
}
